The values below come from paper PMC8878928 (International Journal of Molecular Sciences, 2022).

In one test the target is SARS-CoV-2 3CL^Pro (Severe acute respiratory syndrome coronavirus 2, UniProt P0DTD1). The test can be described thus: FRET-based 3CLPro enzymatic inhibition assay (SARS-CoV-2). Type of test: biochemical. To be noted: 0.2 μM enzyme, mean ± SE, n = 3.
A further test has as its target SARS-CoV 3CL^Pro (Severe acute respiratory syndrome coronavirus, UniProt P0C6X7). Description: biochemical.
In test [1] the test system is SARS-CoV-2. The arrangement: method as in PMID 32198291. Conditions: Calu-3 cell line; read-out: EC50 (viral RNA copies); cited from earlier work.
For the next test, the system named is 3CL^Pro. To be noted: read-out: IC50 against 3CL^Pro; lead compound; cited from earlier work.
In test [2] the test system is SARS-CoV-2. Conditions: co-administration of PF07321332 and Ritonavir, oral, phase II/III trials; cited from earlier work.
Test [3] has as its system SARS-CoV-2. Description: SARS-CoV-2 infection assay in Vero E6 cells, viral RNA by qPCR. Type of test: cell-based. To be noted: final concentration 10 μM, initial screen. On the technique in general: Real-time PCR tracks product formation cycle by cycle.

SMILES strings stand for the structures.

As for `CC(C)C[C@H](NC(=O)[C@@H](NC(=O)C1CCCCC1)C(C)C)C(=O)N[C@H](C=O)C[C@@H]1CCCNC1=O` [TPM1], the concentration for half-maximal inhibition (IC50) (commonly the concentration that inhibits the measured activity by half) at SARS-CoV-2 3CL^Pro was determined as 241 ± 0.5 nM; against SARS-CoV 3CL^Pro, 479 ± 29 nM.
Taken in the same sequence, the figures for `CC(C)C[C@H](NC(=O)[C@@H](NC(=O)c1ccco1)C(C)C)C(=O)N[C@H](C=O)C[C@@H]1CCCNC1=O` [TPM5] were 59 ± 2 nM and 134 ± 1 nM.
For `CC(C)(C)OC(=O)Nc1cccn([C@@H](CC2CC2)C(=O)N[C@@H](C[C@@H]2CCNC2=O)C(=O)C(=O)NCc2ccccc2)c1=O` [13b], in the test on SARS-CoV-2 [1], the EC50 (commonly the concentration needed to bring the measured effect to its halfway point) was 4000 to 5000 nM. The IC50 with 3CL^Pro was 670 ± 180 nM.
As for `CC(C)(C)[C@H](NC(=O)C(F)(F)F)C(=O)N1C[C@H]2[C@@H]([C@H]1C(=O)N[C@H](C#N)C[C@@H]1CCNC1=O)C2(C)C` [PF-07321332], in the test on SARS-CoV-2 [2], the “Reduction of overall hospitalizations” value is recorded as 89%.
On to `COc1ccc(/C=C/C(=O)N[C@H](C(=O)N[C@@H](CC(C)C)C(=O)N[C@H](C=O)C[C@@H]2CCCNC2=O)C(C)C)cc1` [TPM10], for which the values for the IC50 against SARS-CoV-2 3CL^Pro and against SARS-CoV 3CL^Pro were 80 ± 2 nM and 231 ± 4 nM, respectively.
In the case of `CC[C@H](C)[C@H](NC(=O)/C=C/c1ccccc1)C(=O)N[C@H](C=O)C[C@@H]1CCCNC1=O` [TPM19], the IC50 at SARS-CoV-2 3CL^Pro amounted to 1060 ± 31 nM; against SARS-CoV 3CL^Pro, 1220 ± 312 nM. Further, the “Reduction of RNA loads of SARS-CoV-2 (relative level to DMSO control)” value in the test with SARS-CoV-2 [3] is reported as 10^3.
Taken in the same sequence, the figures for `CC(C)C[C@H](NC(=O)[C@H](Cc1ccccc1)NC(=O)/C=C/c1ccccc1)C(=O)N[C@H](C=O)C[C@@H]1CCCNC1=O` [TPM16] were 166 ± 2 nM, 232 ± 1 nM and 10^3.
